From US7897601B2, “Cannabinoid receptor modulators” (Intervet, Inc., priority 2006, dated 2011)

Biological target: T1, cannabinoid CB1 (Homo sapiens, UniProt P21554)
T1 construct: purchased
Experiment: Competition binding assay for cannabinoid CB1 affinity (3H-CP55,940 displacement)
Description: Competition binding assays for cannabinoid CB1 and CB2 affinity were performed by incubating commercially purchased membranes prepared from cells expressing each receptor subtype (8 μg pro) with 0.5 nM ^3H-CP55,940, a non-selective cannabinoid agonist, along with concentrations of drug ranging from 0.0001-3 μM in Buffer A (5 mM MgCl2, 2.5 mM EDTA and […] BSA). Non-specific binding was defined in the presence of 10 μM CP55,940. For saturation studies, concentrations of ^3H-CP55,940 ranging from 0.1-5 nM were incubated with membranes in the presence and absence of 10 μM CP55,940. Assays were terminated after incubation for 1½ hours by rapid filtration onto 0.3% polyethylenamine treated GF/C filterplates using a BRANDEL cell harvester. […]
The dissociation constant (Kd) of ^3H-CP55,940 at the CB1 and CB2 receptor were determined by plotting specific binding at each concentration of radioligand, and analysis by non-linear regression. For competition studies, the concentration of each drug that inhibited 50 percent of ^3H-CP55,940 binding (IC50) was determined by non-linear regression analysis of the radioligand displacement curves. Affinity constants (Ki) were calculated using the equation derived by Cheng and Prusoff (1973), defined as: IC50/1+[conc. ligand/Kd].

T1 sequence (P21554 whole entry): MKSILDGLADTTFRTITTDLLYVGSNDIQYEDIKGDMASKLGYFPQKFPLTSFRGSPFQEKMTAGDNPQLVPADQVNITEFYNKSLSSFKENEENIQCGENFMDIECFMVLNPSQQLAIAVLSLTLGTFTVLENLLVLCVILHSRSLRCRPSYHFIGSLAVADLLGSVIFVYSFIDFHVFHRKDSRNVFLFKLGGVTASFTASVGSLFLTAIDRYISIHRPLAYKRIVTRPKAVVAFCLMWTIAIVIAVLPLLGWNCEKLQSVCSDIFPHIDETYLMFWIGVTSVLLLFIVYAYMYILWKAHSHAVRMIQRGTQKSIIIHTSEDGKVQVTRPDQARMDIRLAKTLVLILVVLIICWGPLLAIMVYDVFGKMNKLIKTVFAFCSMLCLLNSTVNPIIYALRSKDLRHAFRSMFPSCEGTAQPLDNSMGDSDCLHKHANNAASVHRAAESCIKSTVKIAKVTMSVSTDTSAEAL

With `O=C(NC1CCCC1)C1CCC(c2ccc(Cl)cc2)=C(c2ccc(Cl)cc2)C1` (stereo not shown) [Compound 180] as the molecule, how does the Ki read?
Its Ki is 1 to 10 nM.
